For 18 molecules, inhibition and IC50 results are on record in ChEMBL document CHEMBL6103552, “Identification of peptide-based hepatitis B virus capsid inhibitors based on the viral core protein” (Bioorg Med Chem Lett, 2025).

The structures appear in SMILES notation. Activity calls are given as the source filed them. Residues, ends and D or L forms follow the SMILES beside them.

The term IC50 denotes the concentration at which inhibition is half-maximal.

Holding throughout (type): subcellular
Assay [1] concerns the target Core antigen (Hepatitis B virus) (UniProt Q03732). The assay can be described thus: Inhibition of Hepatitis B virus capsid formation at 10 uM treated during cell-free HBV Cp T33N mutant synthesis using wheat germ lysates and HBV Cp RNA by Denatured capsid assay based western blot analysis.
For assay [2] the target is unchanged. Kind of assay: Inhibition of Hepatitis B virus capsid formation at 100 uM treated during cell-free HBV Cp T33N mutant synthesis using wheat germ lysates and HBV Cp RNA by Denatured capsid assay based western blot analysis.
Assay [3] has the same target. Kind of assay: Inhibition of Hepatitis B virus capsid formation at 100 uM treated during cell-free wild type HBV Cp synthesis using wheat germ lysates and HBV Cp RNA by Native capsid assay based western blot analysis. (In general: In western blotting, separated proteins are transferred to a membrane and probed.)
Assay [4] has as its target Core antigen (Hepatitis B virus, UniProt Q03732). Kind of assay: Inhibition of Hepatitis B virus capsid formation treated during cell-free wild type HBV Cp synthesis using wheat germ lysates and HBV Cp RNA by Denatured capsid assay based western blot analysis.

Chain of Core antigen (Hepatitis B virus) (Q03732 as listed by the source): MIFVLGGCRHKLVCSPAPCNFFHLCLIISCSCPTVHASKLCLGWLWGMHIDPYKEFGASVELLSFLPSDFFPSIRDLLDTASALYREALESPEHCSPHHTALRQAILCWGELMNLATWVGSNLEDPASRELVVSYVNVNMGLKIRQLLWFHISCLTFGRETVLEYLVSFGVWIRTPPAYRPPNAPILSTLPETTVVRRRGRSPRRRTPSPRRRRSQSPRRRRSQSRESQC
Chain of Core antigen (Q03732 whole entry): as the sequence (Q03732 as listed by the source) above

For the molecule `CC[C@H](C)[C@H](NC(=O)[C@H](Cc1c[nH]cn1)NC(=O)[C@H](Cc1ccccc1)NC(=O)[C@H](Cc1c[nH]c2ccccc12)NC(=O)[C@H](CC(C)C)NC(=O)[C@H](CC(C)C)NC(=O)[C@H](CCC(N)=O)NC(=O)[C@H](CCCNC(=N)N)NC(=O)[C@H](Cc1ccccc1)NC(=O)[C@H](CCCCN)NC(=O)[C@H](CC(C)C)NC(=O)CNC(=O)[C@H](CCSC)NC(=O)[C@H](CC(N)=O)NC(=O)[C@@H](NC(C)=O)C(C)C)C(N)=O`, the inhibition entry is on record as “Active; Same Efficacy As Gls4 Observed” in assay [1]; “Active; Comparable Activity To Gls4, Positive Control” in assay [2]; “Active; Significantly Inhibited Hbv-Capsid Formation Of 72 Peptides Tested” in assay [3]. In addition, 97.8 µM corresponded to half-maximal inhibition in assay [4] (IC50).

As to `CC(C)C[C@H](NC(=O)[C@H](Cc1ccc(O)cc1)NC(=O)[C@H](CCC(=O)O)NC(=O)[C@H](CC(C)C)NC(=O)[C@@H](NC(=O)[C@@H](NC(=O)[C@H](CCC(=O)O)NC(=O)[C@H](CCCNC(=N)N)NC(=O)CN)[C@@H](C)O)C(C)C)C(=O)N[C@H](C(=O)N[C@@H](CO)C(=O)N[C@@H](Cc1ccccc1)C(=O)NCC(=O)N[C@H](C(=O)N[C@@H](Cc1c[nH]c2ccccc12)C(N)=O)C(C)C)C(C)C` (H-GRETVLEYLVSFGVW-NH2), the inhibition result in assay [3] was “inactive”.

For the molecule `CC[C@H](C)[C@H](NC(=O)[C@H](CC(=O)O)NC(=O)[C@@H](N)CCSC)C(=O)N[C@@H](CC(=O)O)C(=O)N1CCC[C@H]1C(=O)N[C@@H](Cc1ccc(O)cc1)C(=O)N[C@@H](CCCCN)C(=O)N[C@@H](CCC(=O)O)C(=O)N[C@@H](Cc1ccccc1)C(=O)NCC(=O)N[C@@H](C)C(=O)N[C@@H](CO)C(=O)N[C@H](C(=O)N[C@@H](CCC(=O)O)C(=O)N[C@@H](CC(C)C)C(N)=O)C(C)C`, the inhibition result in assay [3] was “inactive”.

For the molecule `CC(=O)N[C@@H](Cc1ccc(O)cc1)C(=O)N[C@@H](CCCCN)C(=O)N[C@@H](CCC(=O)O)C(=O)N[C@@H](Cc1ccccc1)C(=O)NCC(=O)N[C@@H](C)C(=O)N[C@@H](CO)C(=O)N[C@H](C(=O)N[C@@H](CCC(=O)O)C(=O)N[C@@H](CC(C)C)C(=O)N[C@@H](CC(C)C)C(=O)N[C@@H](CO)C(=O)N[C@@H](Cc1ccccc1)C(=O)N[C@@H](CC(C)C)C(=O)N1CCC[C@H]1C(N)=O)C(C)C`, the inhibition result in assay [3] is “inactive”.

For the molecule `CC(C)C[C@H](NC(=O)[C@@H](NC(=O)[C@@H](N)CO)[C@@H](C)O)C(=O)N1CCC[C@H]1C(=O)N[C@@H](CCC(=O)O)C(=O)N[C@H](C(=O)N[C@H](C(=O)N[C@H](C(=O)N[C@H](C(=O)N[C@@H](CCCNC(=N)N)C(=O)N[C@@H](CCCNC(=N)N)C(=O)N[C@@H](CCCNC(=N)N)C(=O)NCC(=O)N[C@@H](CCCNC(=N)N)C(=O)N[C@@H](CO)C(N)=O)C(C)C)C(C)C)[C@@H](C)O)[C@@H](C)O`, the inhibition entry in assay [3] was “inactive”.

`N=C(N)NCCC[C@H](NC(=O)[C@H](CO)NC(=O)[C@H](CCC(N)=O)NC(=O)[C@H](CO)NC(=O)[C@H](CCCNC(=N)N)NC(=O)[C@H](CCCNC(=N)N)NC(=O)[C@H](CCCNC(=N)N)NC(=O)[C@H](CCCNC(=N)N)NC(=O)[C@@H]1CCCN1C(=O)[C@H](CO)NC(=O)[C@H](CCC(N)=O)NC(=O)[C@H](CO)NC(=O)[C@H](CCCNC(=N)N)NC(=O)[C@@H](N)CCCNC(=N)N)C(=O)N[C@@H](CCC(=O)O)C(N)=O` (H-RRSQSPRRRRSQSRE-NH2): the inhibition entry in assay [3] is “inactive”.

Regarding `CC[C@H](C)[C@H](NC(=O)[C@H](Cc1c[nH]c2ccccc12)NC(=O)[C@@H](NC(=O)CNC(=O)[C@H](Cc1ccccc1)NC(=O)[C@H](CO)NC(=O)[C@@H](NC(=O)[C@H](CC(C)C)NC(=O)[C@H](Cc1ccc(O)cc1)NC(=O)[C@H](CCC(=O)O)NC(=O)[C@H](CC(C)C)NC(C)=O)C(C)C)C(C)C)C(=O)N[C@@H](CCCNC(=N)N)C(=O)N[C@H](C(=O)N1CCC[C@H]1C(=O)N1CCC[C@H]1C(N)=O)[C@@H](C)O` (Ac-LEYLVSFGVWIRTPP-NH2), the inhibition result in assay [3] was “inactive”.

On to `CC(C)C[C@H](NC(=O)[C@H](CC(C)C)NC(=O)[C@H](CCC(=O)O)NC(=O)[C@@H](NC(=O)[C@H](CO)NC(=O)[C@H](C)N)C(C)C)C(=O)N[C@@H](CO)C(=O)N[C@@H](Cc1ccccc1)C(=O)N[C@@H](CC(C)C)C(=O)N1CCC[C@H]1C(=O)N[C@@H](CO)C(=O)N[C@@H](CC(=O)O)C(=O)N[C@@H](Cc1ccccc1)C(=O)N[C@@H](Cc1ccccc1)C(=O)N1CCC[C@H]1C(N)=O`, for which the inhibition entry in assay [3] was “inactive”.

Take `CC[C@H](C)[C@H](NC(=O)[C@H](Cc1c[nH]c2ccccc12)NC(=O)[C@@H](NC(=O)CNC(=O)[C@H](Cc1ccccc1)NC(=O)[C@H](CO)NC(C)=O)C(C)C)C(=O)N[C@@H](CCCNC(=N)N)C(=O)N[C@H](C(=O)N1CCC[C@H]1C(=O)N1CCC[C@H]1C(=O)N[C@@H](C)C(=O)N[C@@H](Cc1ccc(O)cc1)C(=O)N[C@@H](CCCNC(=N)N)C(=O)N1CCC[C@H]1C(=O)N1CCC[C@H]1C(N)=O)[C@@H](C)O`: the inhibition entry in assay [3] is “inactive”.

Consider `C[C@@H](O)[C@H](NC(=O)[C@H](CCCNC(=N)N)NC(=O)[C@H](CCCNC(=N)N)NC(=O)[C@H](CCCNC(=N)N)NC(=O)[C@@H]1CCCN1)C(=O)N1CCC[C@H]1C(=O)N[C@@H](CO)C(=O)N1CCC[C@H]1C(=O)N[C@@H](CCCNC(=N)N)C(=O)N[C@@H](CCCNC(=N)N)C(=O)N[C@@H](CCCNC(=N)N)C(=O)N[C@@H](CCCNC(=N)N)C(=O)N[C@@H](CO)C(=O)N[C@@H](CCC(N)=O)C(=O)N[C@@H](CO)C(N)=O` (H-PRRRTPSPRRRRSQS-NH2), for which the inhibition entry in assay [3] is “inactive”.

Take `CC(C)C[C@H](NC(=O)[C@H](CC(C)C)NC(=O)[C@H](CCC(=O)O)NC(=O)[C@@H](NC(=O)[C@H](CO)NC(=O)[C@H](C)NC(=O)CNC(=O)[C@H](Cc1ccccc1)NC(=O)[C@H](CCC(=O)O)NC(=O)[C@H](CCCCN)NC(=O)[C@@H](N)Cc1ccc(O)cc1)C(C)C)C(=O)N[C@@H](CO)C(=O)N[C@@H](Cc1ccccc1)C(=O)N[C@@H](CC(C)C)C(=O)N1CCC[C@H]1C(N)=O`: the inhibition entry in assay [3] is “inactive”.

Consider `CC[C@H](C)[C@H](NC(=O)[C@H](C)NC(=O)[C@H](CCC(N)=O)NC(=O)[C@@H]1CCCN1C(=O)[C@H](CC(C)C)NC(=O)[C@H](C)NC(=O)[C@@H](NC(=O)[C@H](Cc1c[nH]cn1)NC(=O)[C@@H](N)Cc1c[nH]cn1)[C@@H](C)O)C(=O)N[C@@H](CC(C)C)C(=O)N[C@@H](CS)C(=O)N[C@@H](Cc1c[nH]c2ccccc12)C(=O)NCC(=O)N[C@@H](CCC(=O)O)C(=O)N[C@@H](CC(C)C)C(N)=O` (H-HHTALPQAILCWGEL-NH2), for which, in assay [3], the inhibition entry is “inactive”.

Take `CC[C@H](C)[C@H](NC(=O)[C@H](Cc1c[nH]c2ccccc12)NC(=O)[C@@H](NC(=O)CNC(=O)[C@H](Cc1ccccc1)NC(=O)[C@H](CO)NC(=O)[C@@H](NC(=O)[C@H](CC(C)C)NC(=O)[C@H](Cc1ccc(O)cc1)NC(=O)[C@H](CCC(=O)O)NC(=O)[C@@H](N)CC(C)C)C(C)C)C(C)C)C(=O)N[C@@H](CCCNC(=N)N)C(=O)N[C@H](C(=O)N1CCC[C@H]1C(=O)N1CCC[C@H]1C(N)=O)[C@@H](C)O` (H-LEYLVSFGVWIRTPP-NH2): the inhibition result in assay [3] is “inactive”.

For the molecule `CC(C)C[C@H](NC(=O)[C@H](Cc1ccc(O)cc1)NC(=O)[C@H](CCC(=O)O)NC(=O)[C@H](CC(C)C)NC(=O)[C@@H](NC(=O)[C@@H](NC(=O)[C@H](CCC(=O)O)NC(=O)[C@H](CCCNC(=N)N)NC(=O)CNC(=O)[C@H](Cc1ccccc1)NC(=O)[C@@H](NC(=O)[C@H](CC(C)C)NC(=O)[C@H](CS)NC(=O)[C@@H](N)CO)[C@@H](C)O)[C@@H](C)O)C(C)C)C(=O)N[C@H](C(N)=O)C(C)C` (H-SCLTFGRETVLEYLV-NH2), the inhibition result in assay [3] was “inactive”.

For the molecule `CC[C@H](C)[C@H](NC(=O)[C@H](C)NC(=O)[C@H](CCC(N)=O)NC(=O)[C@@H]1CCCN1C(=O)[C@H](CC(C)C)NC(=O)[C@H](C)NC(=O)[C@@H](NC(=O)[C@H](Cc1c[nH]cn1)NC(=O)[C@H](Cc1c[nH]cn1)NC(C)=O)[C@@H](C)O)C(=O)N[C@@H](CC(C)C)C(=O)N[C@@H](CS)C(=O)N[C@@H](Cc1c[nH]c2ccccc12)C(=O)NCC(=O)N[C@@H](CCC(=O)O)C(=O)N[C@@H](CC(C)C)C(N)=O` (Ac-HHTALPQAILCWGEL-NH2), the inhibition entry in assay [3] was “inactive”.

As for `CC[C@H](C)[C@H](NC(=O)[C@H](C)NC(=O)[C@H](CCC(N)=O)NC(=O)[C@@H]1CCCN1C(C)=O)C(=O)N[C@@H](CC(C)C)C(=O)N[C@@H](CS)C(=O)N[C@@H](Cc1c[nH]c2ccccc12)C(=O)NCC(=O)N[C@@H](CCC(=O)O)C(=O)N[C@@H](CC(C)C)C(=O)N[C@@H](CCSC)C(=O)N[C@@H](CC(N)=O)C(=O)N[C@@H](CC(C)C)C(=O)N[C@@H](C)C(=O)N[C@H](C(N)=O)[C@@H](C)O`, the inhibition result in assay [3] is “inactive”.

`CC(=O)N[C@@H](CCC(N)=O)C(=O)N[C@@H](CO)C(=O)N1CCC[C@H]1C(=O)N[C@@H](CCCNC(=N)N)C(=O)N[C@@H](CCCNC(=N)N)C(=O)N[C@@H](CCCNC(=N)N)C(=O)N[C@@H](CCCNC(=N)N)C(=O)N[C@@H](CO)C(=O)N[C@@H](CCC(N)=O)C(=O)N[C@@H](CO)C(=O)N[C@@H](CCCNC(=N)N)C(=O)N[C@@H](CCC(=O)O)C(=O)N[C@@H](CO)C(=O)N[C@@H](CCC(N)=O)C(=O)N[C@@H](CS)C(N)=O` (Ac-QSPRRRRSQSRESQC-NH2): the inhibition entry in assay [3] was “inactive”.

Consider `CC[C@H](C)[C@H](NC(C)=O)C(=O)N[C@@H](CCCNC(=N)N)C(=O)N[C@H](C(=O)N1CCC[C@H]1C(=O)N1CCC[C@H]1C(=O)N[C@@H](C)C(=O)N[C@@H](Cc1ccc(O)cc1)C(=O)N[C@@H](CCCNC(=N)N)C(=O)N1CCC[C@H]1C(=O)N1CCC[C@H]1C(=O)N[C@@H](CC(N)=O)C(=O)N[C@@H](C)C(=O)N1CCC[C@H]1C(=O)N[C@H](C(=O)N[C@@H](CC(C)C)C(N)=O)[C@@H](C)CC)[C@@H](C)O` (Ac-IRTPPAYRPPNAPIL-NH2), for which the inhibition entry in assay [3] is “inactive”.
